Measured values from ChEMBL document CHEMBL1149215, “Chemoenzymatic synthesis and binding affinity of novel (R)- and (S)-3-aminomethyl-1-tetralones, potential atypical antipsychotics” (Bioorg Med Chem Lett, 2004).

Assays:
[1] = target: 5-hydroxytryptamine receptor 2A (Homo sapiens, UniProt P28223)
Description: Binding affinity towards serotonin 5-hydroxytryptamine 2A receptor

[2] = target: T1, 5-hydroxytryptamine receptor 2C (Homo sapiens, UniProt P28335)
T1 sequence (P28335 whole entry): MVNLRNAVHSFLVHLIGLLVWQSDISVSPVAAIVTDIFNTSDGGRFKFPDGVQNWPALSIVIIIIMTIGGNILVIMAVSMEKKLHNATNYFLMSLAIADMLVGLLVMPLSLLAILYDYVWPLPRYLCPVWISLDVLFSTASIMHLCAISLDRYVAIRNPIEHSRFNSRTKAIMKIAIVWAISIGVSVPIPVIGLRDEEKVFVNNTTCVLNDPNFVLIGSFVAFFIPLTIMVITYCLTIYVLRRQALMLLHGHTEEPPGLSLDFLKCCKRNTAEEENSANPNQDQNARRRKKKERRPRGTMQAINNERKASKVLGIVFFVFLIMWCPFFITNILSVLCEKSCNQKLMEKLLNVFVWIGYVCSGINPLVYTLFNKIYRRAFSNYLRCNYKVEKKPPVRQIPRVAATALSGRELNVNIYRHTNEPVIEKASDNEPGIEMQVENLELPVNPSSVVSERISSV
Description: Binding affinity towards serotonin 5-hydroxytryptamine 2C receptor

Sequence of 5-hydroxytryptamine receptor 2A (P28223 whole entry): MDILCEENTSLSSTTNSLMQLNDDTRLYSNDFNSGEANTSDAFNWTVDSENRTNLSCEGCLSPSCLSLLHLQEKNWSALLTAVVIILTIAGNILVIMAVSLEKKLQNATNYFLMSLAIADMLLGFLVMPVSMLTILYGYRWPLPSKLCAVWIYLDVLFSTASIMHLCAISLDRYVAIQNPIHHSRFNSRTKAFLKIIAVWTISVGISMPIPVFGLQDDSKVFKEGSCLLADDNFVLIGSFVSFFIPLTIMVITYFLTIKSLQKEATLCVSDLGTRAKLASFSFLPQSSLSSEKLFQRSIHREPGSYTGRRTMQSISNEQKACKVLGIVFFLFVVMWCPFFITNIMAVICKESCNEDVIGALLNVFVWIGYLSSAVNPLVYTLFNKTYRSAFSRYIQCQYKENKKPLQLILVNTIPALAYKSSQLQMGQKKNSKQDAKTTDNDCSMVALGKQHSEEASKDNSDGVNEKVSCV

Compound	Ki [1]	Ki [2]
COc1ccc2c(c1)CC(CN1CCC(C(=O)c3ccc(F)cc3)CC1)CC2=O (racemic)	17.8 nM	1170 nM
COc1cc2c(cc1OC)C(=O)CC(CN1CCN(c3ccccn3)CC1)C2 (racemic)	661 nM	> 10000 nM
O=C1CC(CN2CCN(c3ccccn3)CC2)Cc2ccccc21 (racemic)	977 nM	3310 nM
COc1cc2c(cc1OC)C(=O)CC(CN1CCC(C(=O)c3ccc(F)cc3)CC1)C2 (racemic)	6.03 nM	83.2 nM
COc1ccc2c(c1)CC(CN1CCN(c3ccccc3OC)CC1)CC2=O (racemic)	891 nM	46.8 nM
COc1cc2c(cc1OC)C(=O)CC(CN1CCN(c3ccccc3OC)CC1)C2 (racemic)	2340 nM	> 10000 nM
O=C1CC(CN2CCC(C(=O)c3ccc(F)cc3)CC2)Cc2ccccc21 (racemic)	13.2 nM	501 nM
COc1ccccc1N1CCN(CC2CC(=O)c3ccccc3C2)CC1 (racemic)	513 nM	
COc1ccc2c(c1)CC(CN1CCN(c3ccccn3)CC1)CC2=O (racemic)	692 nM	4570 nM
COc1cc2c(cc1OC)C(=O)CC(CN1CCC(C(=O)c3ccc(F)cc3)CC1)C2 (single isomer, unassigned; (+))	43.7 nM	575 nM
COc1cc2c(cc1OC)C(=O)CC(CN1CCC(C(=O)c3ccc(F)cc3)CC1)C2 (single isomer, unassigned; (-))	5.62 nM	166 nM
O=C1CC(CN2CCC(C(=O)c3ccc(F)cc3)CC2)Cc2ccccc21 (stereo in doubt; (+)-7c)	23.4 nM	490 nM
O=C1CC(CN2CCC(C(=O)c3ccc(F)cc3)CC2)Cc2ccccc21 (stereo in doubt; (-)-7c)	5.89 nM	776 nM

The remaining lines, values ahead:

Ki [1]	Ki [2]	Compound
9.55 nM		COc1cc2c(cc1OC)C(=O)CC(CN1CCC(c3noc4cc(F)ccc34)CC1)C2 (racemic)
2.69 nM	129 nM	O=C1CC(CN2CCC(c3noc4cc(F)ccc34)CC2)Cc2ccccc21 (racemic)
	1620 nM	COc1ccc2c(c1)CC(CN1CCC(c3noc4cc(F)ccc34)CC1)CC2=O (racemic)
11.2 nM	1100 nM	COc1ccc2c(c1)CC(CN1CCC(C(=O)c3ccc(F)cc3)CC1)CC2=O (single isomer, unassigned; (+))
1.48 nM	513 nM	COc1ccc2c(c1)CC(CN1CCC(c3noc4cc(F)ccc34)CC1)CC2=O (single isomer, unassigned; (+))
16.2 nM	977 nM	COc1ccc2c(c1)CC(CN1CCC(C(=O)c3ccc(F)cc3)CC1)CC2=O (single isomer, unassigned; (-))
26.3 nM	832 nM	COc1ccc2c(c1)CC(CN1CCC(c3noc4cc(F)ccc34)CC1)CC2=O (single isomer, unassigned; (-))
29.5 nM	661 nM	O=C1CC(CN2CCC(c3noc4cc(F)ccc34)CC2)Cc2ccccc21 (stereo in doubt; (+)-7d)
6.31 nM	832 nM	O=C1CC(CN2CCC(c3noc4cc(F)ccc34)CC2)Cc2ccccc21 (stereo in doubt; (-)-7d)
7.24 nM		COc1cc2c(cc1OC)C(=O)CC(CN1CCC(c3noc4cc(F)ccc34)CC1)C2 (stereo in doubt; (-)-9d)
